In ChEMBL document CHEMBL4725412, “Augmenting the Activity of Macrolide Adjuvants against Acinetobacter baumannii” (2020):
One block for each compound: values may come before it.

Tests used:
Assay type in all cases: functional
Acinetobacter baumannii [1] = experiment: Potentiation of clarithromycin-induced antibacterial activity against Acinetobacter baumannii AB5075 assessed as fold reduction in clarithromycin MIC at 30 uM by broth microdilution method (reference value: 512 ug/ml)
Acinetobacter baumannii [2] = experiment: Potentiation of clarithromycin-induced antibacterial activity against Acinetobacter baumannii AB5075 assessed as assessed as fold reduction in clarithromycin MIC at 10 uM by CLSI based microdilution method
Acinetobacter baumannii [3] = experiment: Potentiation of clarithromycin-induced antibacterial activity against Acinetobacter baumannii AB5075 assessed as fold reduction in clarithromycin MIC at 30 uM after 2 to 9 days by broth microdilution method; conditions: time day 2-9
Acinetobacter baumannii [4] = experiment: Potentiation of clarithromycin-induced antibacterial activity against Acinetobacter baumannii AB5075 assessed as clarithromycin MIC at 10 uM by CLSI based microdilution method (reference value: […] ug/ml)
Acinetobacter baumannii [5] = experiment: Potentiation of clarithromycin-induced antibacterial activity against Acinetobacter baumannii AB5075 assessed as clarithromycin MIC at 30 uM by CLSI based microdilution method (reference value: […] ug/ml)
Acinetobacter baumannii [6] = experiment: Antibacterial activity against Acinetobacter baumannii AB5075 assessed as reduction in microbial growth by CLSI based microdilution method
Acinetobacter baumannii [7] = experiment: Potentiation of clarithromycin-induced antibacterial activity against Acinetobacter baumannii AB5075 assessed as clarithromycin MIC at 30 uM after 2 to 9 days by broth microdilution method (reference value: […] ug/ml); conditions: time day 2-9
Acinetobacter baumannii [8] = experiment: Potentiation of clarithromycin-induced antibacterial activity against Acinetobacter baumannii AB5075 assessed as clarithromycin MIC at […] incubated for 16 hrs by broth microdilution method (reference value: […] ug/ml); conditions: dose 30 µM
Acinetobacter baumannii [9] = experiment: Potentiation of clarithromycin-induced antibacterial activity against Acinetobacter baumannii 4269 assessed as fold reduction in clarithromycin MIC at 10 uM incubated for 16 hrs by broth microdilution method
Acinetobacter baumannii [10] = experiment: Potentiation of clarithromycin-induced antibacterial activity against Acinetobacter baumannii 4857 assessed as fold reduction in clarithromycin MIC at 10 uM incubated for 16 hrs by broth microdilution method
Acinetobacter baumannii [11] = experiment: Potentiation of clarithromycin-induced antibacterial activity against Acinetobacter baumannii AB5075 assessed as fold reduction in clarithromycin MIC at 5 uM incubated for 16 hrs in presence of clarithromycin by broth microdilution method
Acinetobacter baumannii [12] = experiment: Potentiation of clarithromycin-induced antibacterial activity against Acinetobacter baumannii 4456 assessed as fold reduction in clarithromycin MIC at 10 uM incubated for 16 hrs by broth microdilution method
Acinetobacter baumannii [13] = experiment: Potentiation of clarithromycin-induced antibacterial activity against Acinetobacter baumannii 4498 assessed as fold reduction in clarithromycin MIC at 10 uM incubated for 16 hrs by broth microdilution metho
Acinetobacter baumannii [14] = experiment: Potentiation of clarithromycin-induced antibacterial activity against Acinetobacter baumannii 3927 assessed as fold reduction in clarithromycin MIC at 10 uM incubated for 16 hrs by broth microdilution method
Acinetobacter baumannii [15] = experiment: Potentiation of clarithromycin-induced antibacterial activity against Acinetobacter baumannii 4026 assessed as fold reduction in clarithromycin MIC at 10 uM incubated for 16 hrs by broth microdilution method
Acinetobacter baumannii [16] = experiment: Potentiation of clarithromycin-induced antibacterial activity against Acinetobacter baumannii AB5075 assessed as clarithromycin MIC at 5 uM incubated for 16 hrs by broth microdilution method (reference value: […] ug/ml)
Acinetobacter baumannii [17] = experiment: Potentiation of clarithromycin-induced antibacterial activity against Acinetobacter baumannii 4991 assessed as fold reduction in clarithromycin MIC at 10 uM incubated for 16 hrs by broth microdilution method
Acinetobacter baumannii [18] = experiment: Potentiation of clarithromycin-induced antibacterial activity against Acinetobacter baumannii AB5075 assessed as clarithromycin MIC at 20 uM incubated for 16 hrs by broth microdilution method (reference value: […] ug/ml)
Acinetobacter baumannii [19] = experiment: Antibacterial activity against Acinetobacter baumannii AB5075 assessed as reduction in microbial growth incubated for 16 hrs by broth microdilution method
Acinetobacter baumannii [20] = experiment: Potentiation of clarithromycin-induced antibacterial activity against Acinetobacter baumannii 5711 assessed as fold reduction in clarithromycin MIC at 10 uM incubated for 16 hrs by broth microdilution method
Acinetobacter baumannii [21] = experiment: Potentiation of clarithromycin-induced antibacterial activity against Acinetobacter baumannii AB5075 assessed as fold reduction in clarithromycin MIC at 7.5 uM incubated for 16 hrs in presence of clarithromycin broth microdilution method
Acinetobacter baumannii [22] = experiment: Potentiation of clarithromycin-induced antibacterial activity against Acinetobacter baumannii 3560 assessed as fold reduction in clarithromycin MIC at 10 uM incubated for 16 hrs by broth microdilution method
Acinetobacter baumannii [23] = experiment: Potentiation of clarithromycin-induced antibacterial activity against Acinetobacter baumannii 5197 assessed as fold reduction in clarithromycin MIC at 10 uM incubated for 16 hrs by broth microdilution method
Acinetobacter baumannii [24] = experiment: Potentiation of clarithromycin-induced antibacterial activity against Acinetobacter baumannii 4025 assessed as fold reduction in clarithromycin MIC at 10 uM incubated for 16 hrs by broth microdilution method
Acinetobacter baumannii [25] = experiment: Potentiation of clarithromycin-induced antibacterial activity against Acinetobacter baumannii AB5075 assessed as clarithromycin MIC at 10 uM incubated for 16 hrs by broth microdilution method (reference value: […] ug/ml)
Acinetobacter baumannii [26] = experiment: Potentiation of clarithromycin-induced antibacterial activity against Acinetobacter baumannii 3785 assessed as fold reduction in clarithromycin MIC at 10 uM incubated for 16 hrs by broth microdilution method
Acinetobacter baumannii [27] = experiment: Potentiation of clarithromycin-induced antibacterial activity against Acinetobacter baumannii 8967 assessed as fold reduction in clarithromycin MIC at 10 uM incubated for 16 hrs by broth microdilution method
Acinetobacter baumannii [28] = experiment: Potentiation of clarithromycin-induced antibacterial activity against Acinetobacter baumannii AB5075 assessed as fold reduction in clarithromycin MIC at 30 uM incubated for 16 hrs in presence of clarithromycin by broth microdilution method
Acinetobacter baumannii [29] = experiment: Potentiation of clarithromycin-induced antibacterial activity against Acinetobacter baumannii 3806 assessed as fold reduction in clarithromycin MIC at 10 uM incubated for 16 hrs by broth microdilution method
Acinetobacter baumannii [30] = experiment: Potentiation of clarithromycin-induced antibacterial activity against Acinetobacter baumannii AB5075 assessed as fold reduction in clarithromycin MIC at 20 uM incubated for 16 hrs in presence of clarithromycin by broth microdilution method
Acinetobacter baumannii [31] = experiment: Potentiation of clarithromycin-induced antibacterial activity against Acinetobacter baumannii 4795 assessed as fold reduction in clarithromycin MIC at 10 uM incubated for 16 hrs by broth microdilution method
Acinetobacter baumannii [32] = experiment: Potentiation of clarithromycin-induced antibacterial activity against Acinetobacter baumannii 4448 assessed as fold reduction in clarithromycin MIC at 10 uM incubated for 16 hrs by broth microdilution method
Acinetobacter baumannii [33] = experiment: Potentiation of clarithromycin-induced antibacterial activity against Acinetobacter baumannii 4052 assessed as fold reduction in clarithromycin MIC at 10 uM incubated for 16 hrs by broth microdilution method
Acinetobacter baumannii [34] = experiment: Potentiation of clarithromycin-induced antibacterial activity against Acinetobacter baumannii 4490 assessed as fold reduction in clarithromycin MIC at 10 uM incubated for 16 hrs by broth microdilution method
Acinetobacter baumannii [35] = experiment: Potentiation of clarithromycin-induced antibacterial activity against Acinetobacter baumannii 4027 assessed as fold reduction in clarithromycin MIC at 10 uM incubated for 16 hrs by broth microdilution method
Acinetobacter baumannii [36] = experiment: Potentiation of clarithromycin-induced antibacterial activity against Acinetobacter baumannii 5256 assessed as fold reduction in clarithromycin MIC at 10 uM incubated for 16 hrs by broth microdilution method
Acinetobacter baumannii [37] = experiment: Potentiation of clarithromycin-induced antibacterial activity against Acinetobacter baumannii 4957 assessed as fold reduction in clarithromycin MIC at 10 uM incubated for 16 hrs by broth microdilution method
Acinetobacter baumannii [38] = experiment: Potentiation of clarithromycin-induced antibacterial activity against Acinetobacter baumannii AB5075 assessed as fold reduction in clarithromycin MIC at 10 uM incubated for 16 hrs in presence of clarithromycin by broth microdilution method
Acinetobacter baumannii [39] = experiment: Potentiation of clarithromycin-induced antibacterial activity against Acinetobacter baumannii 5001 assessed as fold reduction in clarithromycin MIC at 10 uM incubated for 16 hrs by broth microdilution method
Acinetobacter baumannii [40] = experiment: Potentiation of clarithromycin-induced antibacterial activity against Acinetobacter baumannii AB5075 assessed as clarithromycin MIC at 7.5 uM incubated for 16 hrs by broth microdilution method (reference value: […] ug/ml)
Acinetobacter baumannii [41] = experiment: Potentiation of clarithromycin-induced antibacterial activity against Acinetobacter baumannii 4878 assessed as fold reduction in clarithromycin MIC at 10 uM incubated for 16 hrs by broth microdilution method

- MIC (Acinetobacter baumannii [1]): 2 µg/mL
- MIC (Acinetobacter baumannii [4]): 2 µg/mL
- MIC (Acinetobacter baumannii [5]): 0.25 µg/mL
- MIC (Acinetobacter baumannii [6]): 100 µM
- MIC (Acinetobacter baumannii [7]): 0.25 µg/mL
SMILES: Cl.Nc1nc(-c2ccc(NC(=O)c3cc(Cl)cc(Cl)c3)cc2)c[nH]1
- fold change (FC) (Acinetobacter baumannii [2]): 16
- fold change (FC) (Acinetobacter baumannii [3]): 128

- MIC (Acinetobacter baumannii [8]): 0.5 µg/mL
- MIC (Acinetobacter baumannii [16]): 8 µg/mL
- MIC (Acinetobacter baumannii [18]): 0.5 µg/mL
- MIC (Acinetobacter baumannii [19]): > 200 µM
- MIC (Acinetobacter baumannii [25]): 0.5 µg/mL
- MIC (Acinetobacter baumannii [40]): 1 µg/mL
SMILES: Cl.Nc1nc(-c2ccc(NC(=O)c3ccc(Cl)c(Cl)c3)cc2F)c[nH]1
- fold change (FC) (Acinetobacter baumannii [9]): 8
- fold change (FC) (Acinetobacter baumannii [10]): 8
- fold change (FC) (Acinetobacter baumannii [11]): 4
- fold change (FC) (Acinetobacter baumannii [12]): 8
- fold change (FC) (Acinetobacter baumannii [13]): 8
- fold change (FC) (Acinetobacter baumannii [14]): 8
- fold change (FC) (Acinetobacter baumannii [15]): 8
- fold change (FC) (Acinetobacter baumannii [17]): 8
- fold change (FC) (Acinetobacter baumannii [20]): 8
- fold change (FC) (Acinetobacter baumannii [21]): 32
- fold change (FC) (Acinetobacter baumannii [22]): 8
- fold change (FC) (Acinetobacter baumannii [23]): 8
- fold change (FC) (Acinetobacter baumannii [24]): 8
- fold change (FC) (Acinetobacter baumannii [26]): 8
- fold change (FC) (Acinetobacter baumannii [27]): 8
- fold change (FC) (Acinetobacter baumannii [28]): 64
- fold change (FC) (Acinetobacter baumannii [29]): 8
- fold change (FC) (Acinetobacter baumannii [30]): 64
- fold change (FC) (Acinetobacter baumannii [31]): 8
- fold change (FC) (Acinetobacter baumannii [32]): 8
- fold change (FC) (Acinetobacter baumannii [33]): 8
- fold change (FC) (Acinetobacter baumannii [34]): 8
- fold change (FC) (Acinetobacter baumannii [35]): 8
- fold change (FC) (Acinetobacter baumannii [36]): 8
- fold change (FC) (Acinetobacter baumannii [37]): 8
- fold change (FC) (Acinetobacter baumannii [38]): 64
- fold change (FC) (Acinetobacter baumannii [39]): 8
- fold change (FC) (Acinetobacter baumannii [41]): 8
